Reference: EP0465716A1, “Optically active thiazetoquino-line-3-carboxylic acid compound, method for preparation thereof, and a pharmaceutical composition comprising the same” (priority 1990, dated 1992)
In brackets after ≈: the same amount, converted by molar mass.

How the values were obtained:
[1] = test system: Staphylococuss aureus FDA 209PJC-1; experiment: MIC, twofold agar dilution method (standard laboratory strain); format: cell-based; details: Staphylococuss aureus FDA 209PJC-1, Gram +; 10^6 cfu/ml; 18 hrs at 37 °C
Method: (§1) Overnight cultures in Mueller-Hinton broth were suspended by buffered saline gelatin. One loopful of the bacterial suspension (10⁶ or 10⁸ colony-forming units/ml) was incubated onto the plates containing test compounds. The plates were incubated for 18 hrs at 37 °C. The MIC was defined by the lowest concentration of the drug that inhibited visible growth of bacteria.

[2] = test system: Serratia marcescens IAM 1184; experiment: as above; format: cell-based; details: IAM1184; Serratia marcescens IAM 1184, Gram -; 10^6 cfu/ml; 18 hrs at 37 °C
Method: as §1

[3] = test system: Pseudomonas aeruginosa IFO 3445; experiment: as above; format: cell-based; details: IFO3445; Pseudomonas aeruginosa IFO 3445, Gram -; 10^6 cfu/ml; 18 hrs at 37 °C
Method: as §1

[4] = test system: Escherichia coli NIHJ JC-2; experiment: as above; format: cell-based; details: NIHJJC2; Escherichia coli NIHJ JC-2, Gram -; 10^6 cfu/ml; 18 hrs at 37 °C
Method: as §1

[5] = test system: Enterobacter cloacae 963; experiment: as above; format: cell-based; details: Enterobacter cloacae 963, Gram -; 10^6 cfu/ml; 18 hrs at 37 °C
Method: as §1

[6] = test system: Male mice of ddY strain; experiment: Convulsion inducing activity in combination with fenbufen; details: thirty minutes after fenbufen 100 mg/kg orally
Method: Male mice of ddY strain, 5 weeks old, were used. Fenbufen suspended in 0.5 % carboxymethylcellulose was administered orally at a dose of 100 mg/kg. After thirty minutes, test compounds suspended in 0.5 % carboxymethylcellulose were injected intraperitoneally (i.p.) at a dose of 100 mg/kg or 300 mg/kg.

[7] = test system: Acinetobacter calcoaceticus HNR 904; experiment: MIC, twofold agar dilution method (clinically isolated strain); format: cell-based; details: HNR904; Acinetobacter calcoaceticus HNR 904, Gram -; 10^6 cfu/ml; 18 hrs at 37 °C
Method: as §1

[8] = test system: Klebsiella pneumoniae HNR 858; experiment: as above; format: cell-based; details: HNR858; Klebsiella pneumoniae HNR 858, Gram -; 10^6 cfu/ml; 18 hrs at 37 °C
Method: as §1

[9] = test system: Staphylococcuss aureus HPC 527; experiment: as above; format: cell-based; details: Staphylococcuss aureus HPC 527, Gram +; 10^6 cfu/ml; 18 hrs at 37 °C
Method: as §1

[10] = test system: Acinetobacter calcoaceticus HNR 939; experiment: as above; format: cell-based; details: HNR939; Acinetobacter calcoaceticus HNR 939, Gram -; 10^6 cfu/ml; 18 hrs at 37 °C
Method: as §1

[11] = test system: Serratia marcescens HNR 1544; experiment: as above; format: cell-based; details: HNR1544; Serratia marcescens HNR 1544, Gram -; 10^6 cfu/ml; 18 hrs at 37 °C
Method: as §1

[12] = test system: Klebsiella pneumoniae HNR 869; experiment: as above; format: cell-based; details: HNR869; Klebsiella pneumoniae HNR 869, Gram -; 10^6 cfu/ml; 18 hrs at 37 °C
Method: as §1

[13] = test system: Serratia marcescens HNR 1767; experiment: as above; format: cell-based; details: HNR1767; Serratia marcescens HNR 1767, Gram -; 10^6 cfu/ml; 18 hrs at 37 °C
Method: as §1

[14] = test system: Pseudomonas aeruginosa HNR 1537; experiment: as above; format: cell-based; details: HNR1537; Pseudomonas aeruginosa HNR 1537, Gram -; 10^6 cfu/ml; 18 hrs at 37 °C
Method: as §1

[15] = test system: Pseudomonas aeruginosa HNR 1489; experiment: as above; format: cell-based; details: HNR1489; Pseudomonas aeruginosa HNR 1489, Gram -; 10^6 cfu/ml; 18 hrs at 37 °C
Method: as §1

[16] = test system: Enterobacter cloacae HNR 1946; experiment: as above; format: cell-based; details: HNR1946; Enterobacter cloacae HNR 1946, Gram -; 10^6 cfu/ml; 18 hrs at 37 °C
Method: as §1

[17] = test system: Klebsiella pneumoniae HNR 828; experiment: as above; format: cell-based; details: HNR828; Klebsiella pneumoniae HNR 828, Gram -; 10^6 cfu/ml; 18 hrs at 37 °C
Method: as §1

[18] = test system: Enterobacter cloacae HNR 1939; experiment: as above; format: cell-based; details: HNR1939; Enterobacter cloacae HNR 1939, Gram -; 10^6 cfu/ml; 18 hrs at 37 °C
Method: as §1

[19] = test system: Staphylococcuss aureus HPC 292; experiment: as above; format: cell-based; details: Staphylococcuss aureus HPC 292, Gram +; 10^6 cfu/ml; 18 hrs at 37 °C
Method: as §1

[20] = test system: Enterococcus faecalis HPC 984; experiment: as above; format: cell-based; details: HPC984; Enterococcus faecalis HPC 984, Gram +; 10^6 cfu/ml; 18 hrs at 37 °C
Method: as §1

[21] = test system: Enterococcus faecalis HPC 948; experiment: as above; format: cell-based; details: HPC948; Enterococcus faecalis HPC 948, Gram +; 10^6 cfu/ml; 18 hrs at 37 °C
Method: as §1

[22] = test system: Staphylococcuss aureus HPC 308; experiment: as above; format: cell-based; details: Staphylococcuss aureus HPC 308, Gram +; 10^6 cfu/ml; 18 hrs at 37 °C
Method: as §1

[23] = test system: Enterococcus faecalis HPC 975; experiment: as above; format: cell-based; details: HPC975; Enterococcus faecalis HPC 975, Gram +; 10^6 cfu/ml; 18 hrs at 37 °C
Method: as §1

[24] = test system: Serratia marcescens HNR 1792; experiment: as above; format: cell-based; details: HNR1792; Serratia marcescens HNR 1792, Gram -; 10^6 cfu/ml; 18 hrs at 37 °C
Method: as §1

[25] = test system: Pseudomonas aeruginosa HNR 1472; experiment: as above; format: cell-based; details: HNR1472; Pseudomonas aeruginosa HNR 1472, Gram -; 10^6 cfu/ml; 18 hrs at 37 °C
Method: as §1

[26] = test system: Acinetobacter calcoaceticus HNR 916; experiment: as above; format: cell-based; details: HNR916; Acinetobacter calcoaceticus HNR 916, Gram -; 10^6 cfu/ml; 18 hrs at 37 °C
Method: as §1

[27] = test system: Enterobacter cloacae HNR 1941; experiment: as above; format: cell-based; details: HNR1941; Enterobacter cloacae HNR 1941, Gram -; 10^6 cfu/ml; 18 hrs at 37 °C
Method: as §1

[28] = test system: Klebsiella pneumoniae PCI-602; experiment: MIC, twofold agar dilution method (standard laboratory strain); format: cell-based; details: PCI602; Klebsiella pneumoniae PCI-602, Gram -; 10^6 cfu/ml; 18 hrs at 37 °C; read-out: MIC
Method: as §1, with “Minimum inhibitory concentrations (MIC) of test compounds were determined by the twofold agar dilution method (Chemotherapy, 29(1), 76(1981)). Overnight” for “Overnight”

SMILES	MIC [1] [µg/mL]	MIC [2] [µg/mL]	MIC [3] [µg/mL]	MIC [4] [µg/mL]	MIC [5] [µg/mL]	Number of convulsion induced / Number of animals ([6]; 100 mg/kg (i.p.))	MIC [7] [µg/mL]	MIC [8] [µg/mL]	MIC [9] [µg/mL]	MIC [10] [µg/mL]	MIC [11] [µg/mL]	MIC [12] [µg/mL]	MIC [13] [µg/mL]	MIC [14] [µg/mL]	MIC [15] [µg/mL]	MIC [16] [µg/mL]	MIC [17] [µg/mL]	MIC [18] [µg/mL]	MIC [19] [µg/mL]	MIC [20] [µg/mL]	further results
CC1Sc2c(C(=O)O)c(=O)c3cc(F)c(N4CCNCC4)c(F)c3n21 (stereo not drawn) [Ref. Drug C, 6,8-difluoro-1-methyl-4-oxo-7-(1-piperazinyl)-1H,4H-[1,3]thiazeto[3,2-a]quinoline-3-carboxylic acid]	0.1 (≈ 0.272 µM)	0.1 (≈ 0.272 µM)	0.2 (≈ 0.544 µM)	0.05 (≈ 0.136 µM)	0.05 (≈ 0.136 µM)	6 / 6	25 (≈ 68 µM)	0.39 (≈ 1.06 µM)	0.2 (≈ 0.544 µM)	3.13 (≈ 8.52 µM)	0.1 (≈ 0.272 µM)	0.78 (≈ 2.12 µM)	12.5 (≈ 34 µM)	12.5 (≈ 34 µM)	0.2 (≈ 0.544 µM)	0.39 (≈ 1.06 µM)	3.13 (≈ 8.52 µM)	0.39 (≈ 1.06 µM)	25 (≈ 68 µM)	0.39 (≈ 1.06 µM)	MIC [21]: 3.13 µg/mL (≈ 8.52 µM); MIC [22]: 6.25 µg/mL (≈ 17 µM); MIC [23]: 50 µg/mL (≈ 136 µM); MIC [24]: 3.13 µg/mL (≈ 8.52 µM); MIC [25]: 6.25 µg/mL (≈ 17 µM); MIC [26]: 0.2 µg/mL (≈ 0.544 µM); MIC [27]: 6.25 µg/mL (≈ 17 µM); MIC [28]: 0.025 µg/mL (≈ 0.068 µM)
CC1Sc2c(C(=O)O)c(=O)c3cc(F)c(N4CCC(N)C4)cc3n21 (stereo not drawn) [Ref. Drug D, 7-(3-amino-1-pyrrolidinyl)-6-fluoro-1-methyl-4-oxo-1H,4H-[1,3]thiazeto[3,2-a]quinoline-3-carboxylic acid]	0.05 (≈ 0.143 µM)	0.1 (≈ 0.286 µM)	0.1 (≈ 0.286 µM)	0.05 (≈ 0.143 µM)	0.05 (≈ 0.143 µM)	0 / 6	> 100	0.39 (≈ 1.12 µM)	0.1 (≈ 0.286 µM)	6.25 (≈ 17.9 µM)	0.1 (≈ 0.286 µM)	3.13 (≈ 8.96 µM)	> 100	1.56 (≈ 4.46 µM)	0.1 (≈ 0.286 µM)	0.78 (≈ 2.23 µM)	50 (≈ 143 µM)	0.39 (≈ 1.12 µM)	> 100	0.39 (≈ 1.12 µM)	Number of convulsion induced / Number of animals ([6]; 300 mg/kg (i.p.)): 0 / 6; MIC [21]: 3.13 µg/mL (≈ 8.96 µM); MIC [22]: 25 µg/mL (≈ 71.6 µM); MIC [23]: > 100 µg/mL; MIC [24]: 50 µg/mL (≈ 143 µM); MIC [25]: 50 µg/mL (≈ 143 µM); MIC [26]: 0.39 µg/mL (≈ 1.12 µM); MIC [27]: > 100 µg/mL; MIC [28]: 0.012 µg/mL (≈ 0.0343 µM)
